# From US20130324597A1, “PHARMACEUTICAL COMPOSITION COMPRISING TRANS-[…] AND ITS USE IN THE TREATMENT OF INFECTIONS” (priority 2010, published 2013)
# Legend:
# VIH = assay: Activity on VIH (survival of lymphoid cells T4, P24 dosage); assay type: cell-based; parameters: unit of the concentration uncertain
# E. coli [1] = assay: Treatment of infected mice; assay type: in vivo; settings: E. coli challenge, 7 days observation; reference antibiotic, dose not given
# Method: (§1) The test is performed on Balb/c mice aged 10 to 12 weeks.
# (§2) They are infected by intraperitoneal injection of 4.10^7 Staphylococcus aureus, methicilline resistant, in a growing phase or with E. coli.
# Enterobacteriaceae = assay: MIC of pure components in Mueller Hinton gelose; assay type: cell-based; settings: Enterobacteriaceae n = 13
# Text: (§3) Following a method allowing the dissolution of the active blend in a Mueller Hinton gelose the MIC has been measured with pure components of the active blends 1 to 9.
# Other Gram - rods = assay: MIC of pure components in Mueller Hinton gelose; assay type: cell-based; settings: Other Gram - rods n = 15
# Text: as §3
# [2] = test system: Staphylococcus And Enterococcus; assay: MIC of pure components in Mueller Hinton gelose; assay type: cell-based; settings: Staphylococcus And Enterococcus n = 14
# Text: as §3
# E. coli [3] = assay: MIC in Mueller Hinton gelose; assay type: cell-based, Escherichia coli
# Text: (§4) Following a method allowing the dissolution of the active blend in a Mueller Hinton gelose the following MIC has been measured with pure trans-cinnamaldehyde (CNM) and with the active blends 1 to 8 disclosed in table 1.
# as §3
# E. aerogenes = assay: MIC in Mueller Hinton gelose; assay type: cell-based; settings: Enterobacter aerogenes 09004
# Text: as §4, §3
# Pseudomonas = assay: MIC in Mueller Hinton gelose; assay type: cell-based
# Text: as §4, §3
# Staphylococcus = assay: MIC in Mueller Hinton gelose; assay type: cell-based
# Text: as §4, §3
# P. aeruginosa = assay: MIC in Mueller Hinton gelose; assay type: cell-based, Pseudomonas aeruginosa
# Text: as §4, §3
# Enterococcus = assay: MIC in Mueller Hinton gelose; assay type: cell-based, Enterococcus sp
# Text: as §4, §3
# E. faecium = assay: MIC in Mueller Hinton gelose; assay type: cell-based, Enterococcus faecium
# Text: as §4, §3
# A baumanii = assay: MIC in Mueller Hinton gelose; assay type: cell-based, Acinetobacter baumanii; settings: A baumanii 09010
# Text: as §4, §3
# All strains (60 strains) = assay: Killing-curves, log reduction time; assay type: cell-based; settings: at MIC × 4
# Text: (§5) Results are expressed in minutes necessary to reduce bacterial counts by 1 log.
# Cocci G+ = assay: Killing-curves, log reduction time; assay type: cell-based; settings: at MIC × 4
# Text: as §5
# Enterobacteria = assay: Killing-curves, log reduction time; assay type: cell-based; settings: at MIC × 4
# Text: as §5
# Other gram− = assay: Killing-curves, log reduction time; assay type: cell-based; settings: at MIC × 4
# Text: as §5
# all the strains = assay: MIC of pure components, all strains of Table 9; assay type: cell-based; settings: strains of Table 9, tested concentrations
# Text: as §3
# MRSA = settings: bibliographic data on the main compound; cited from earlier work
# [4] = test system: Staphylococcus aureus, methicilline resistant; assay: Treatment of infected mice; assay type: in vivo, Balb/c mice; settings: MRSA challenge, 10 days observation; reference antibiotic, dose not given
# Method: as §1, §2
# [5] = concentration 0.0005 (unit uncertain)
# [6] = concentration 0.005 (unit uncertain)
# [7] = concentration 0.05 (unit uncertain)
# [8] = concentration 0.1 (unit uncertain)
# [9] = concentration 0.5 (unit uncertain)
# [10] = concentration 5 (unit uncertain)
smiles,measurement,setting,value
Cc1cn([C@H]2C[C@H](N=[N+]=[N-])[C@@H](CO)O2)c(=O)[nH]c1=O [AZT],% Survival (lymphoid cells T4),VIH; [5],10.0%
same,Dosage P24 (% inhibition vs T+ of the plate),VIH; [5],39%
same,% Survival (lymphoid cells T4),VIH; [6],7.0%
same,Dosage P24 (% inhibition vs T+ of the plate),VIH; [6],48%
same,% Survival (lymphoid cells T4),VIH; [7],36.0%
same,Dosage P24 (% inhibition vs T+ of the plate),VIH; [7],80%
same,% Survival (lymphoid cells T4),VIH; [8],86.0%
same,Dosage P24 (% inhibition vs T+ of the plate),VIH; [8],99%
same,% Survival (lymphoid cells T4),VIH; [9],97.8%
same,Dosage P24 (% inhibition vs T+ of the plate),VIH; [9],100%
same,% Survival (lymphoid cells T4),VIH; [10],108.7%
same,Dosage P24 (% inhibition vs T+ of the plate),VIH; [10],100%
CC1(C)S[C@@H]2[C@H](NC(=O)[C@H](N)c3ccc(O)cc3)C(=O)N2[C@H]1C(=O)O [Amoxicillin],% survival,E. coli [1],100%
same,Final score,E. coli [1],6
same,"Final score, % vs placebo",E. coli [1],10.70%
same,Total health score,E. coli [1],678
same,"Total health score, % vs placebo",E. coli [1],38.93%
same,Total weight,E. coli [1],849
same,"Total weight, % vs placebo",E. coli [1],23.58%
"O=C(OCc1ccccc1)c1ccccc1 [Benzyl benzoate, benzyl benzoate]",MIC Range,Enterobacteriaceae,> 10000 µg/mL
same,MIC Range,Other Gram - rods,> 10000 µg/mL
same,MIC Range,[2],> 10000 µg/mL
"O=C/C=C/c1ccccc1 [CNM, trans-cinnamaldehyde]",MIC,E. coli [3]; E. coli 8137,0.016%
same,MIC,E. coli [3]; E. coli 8138,0.016%
same,MIC,E. coli [3]; E. coli 8141,0.016%
same,MIC,E. coli [3]; E. coli 8142,0.016%
same,MIC,E. coli [3]; E. coli 8150,0.031%
same,MIC,E. coli [3]; E. coli 8151,0.031%
same,MIC,E. coli [3]; E. coli 8154,0.031%
same,MIC,E. coli [3]; E. coli 8155,0.031%
same,MIC,E. coli [3]; E. coli 8156,0.031%
same,MIC,E. coli [3]; E. coli 8157,0.031%
same,MIC,E. coli [3]; E. coli 09003,0.063%
same,MIC,E. coli [3]; E. coli ATCC 25922,0.015%
same,MIC,E. aerogenes,0.063%
same,MIC,Pseudomonas; Pseudomonas 8127,0.063%
same,MIC,Pseudomonas; Pseudomonas 8128,0.063%
same,MIC,Pseudomonas; Pseudomonas 8129*,0.063%
same,MIC,Pseudomonas; Pseudomonas 8130*,0.125%
same,MIC,Pseudomonas; Pseudomonas 8131*,0.125%
same,MIC,Pseudomonas; Pseudomonas 8132*,0.125%
same,MIC,Pseudomonas; Pseudomonas 8133,0.125%
same,MIC,Pseudomonas; Pseudomonas 8134,0.016%
same,MIC,Pseudomonas; Pseudomonas 8135*,0.03%
same,MIC,Pseudomonas; Pseudomonas 8136*,0.016%
same,MIC,Staphylococcus; Staphylococcus 8143,0.031%
same,MIC,Staphylococcus; Staphylococcus 8146,0.031%
same,MIC,Staphylococcus; Staphylococcus 8147,0.031%
same,MIC,Staphylococcus; Staphylococcus 8148,0.031%
same,MIC,Staphylococcus; Staphylococcus 8149,0.016%
same,MIC,Staphylococcus; Staphylococcus 8237,0.008%
same,MIC,Staphylococcus; Staphylococcus 8238,0.031%
same,MIC,Staphylococcus; Staphylococcus 8239,0.031%
same,MIC,Staphylococcus; Staphylococcus 8240,0.031%
same,MIC,Staphylococcus; Staphylococcus 8241,0.031%
same,MIC,P. aeruginosa; PS aeruginosa 09007,0.063%
same,MIC,P. aeruginosa; PS aeruginosa ATCC,0.031%
same,MIC,P. aeruginosa; Ps aeruginosa 09008,0.016%
same,MIC,Enterococcus; Enterococcus 8152,0.031%
same,MIC,Enterococcus; Enterococcus 8153,0.031%
same,MIC,E. faecium; Enterococcus faecium 09001,0.031%
same,MIC,E. faecium; Enterococcus faecium 09002,0.031%
same,MIC,A baumanii,0.016%
same,MIC 50,Enterobacteriaceae,150 µg/mL
same,MIC 90,Enterobacteriaceae,600 µg/mL
same,MIC 50,Other Gram - rods,600 µg/mL
same,MIC 90,Other Gram - rods,1250 µg/mL
same,MIC 50,[2],150 µg/mL
same,MIC 90,[2],300 µg/mL
same,Mean Log reduction time,All strains (60 strains),111 min
same,Mean Log reduction time,Cocci G+,195 min
same,Mean Log reduction time,Enterobacteria,72 min
same,Mean Log reduction time,Other gram−,95 min
same,activity / spectrum in words,all the strains,highly effective on all the strains
same,"elimination, bibliographic data",MRSA,1.7 h
"C=C1CC/C=C(\C)CC[C@@H]2[C@@H]1CC2(C)C [Caryophyllene, beta-caryophyllene]",MIC 50,Enterobacteriaceae,> 10000 µg/mL
same,MIC 90,Enterobacteriaceae,> 10000 µg/mL
same,MIC Range,Enterobacteriaceae,> 10000 µg/mL
same,MIC 50,Other Gram - rods,> 10000 µg/mL
same,MIC 90,Other Gram - rods,> 10000 µg/mL
same,MIC Range,Other Gram - rods,> 10000 µg/mL
same,MIC 50,[2],> 10000 µg/mL
same,MIC 90,[2],> 10000 µg/mL
same,activity / spectrum in words,all the strains,narrow
"CC12CCC(CC1)C(C)(C)O2 [Cineole, cineole]",MIC Range,Enterobacteriaceae,> 10000 µg/mL
same,MIC Range,Other Gram - rods,> 10000 µg/mL
same,MIC Range,[2],> 10000 µg/mL
"CC(=O)OCC=Cc1ccccc1 [Cinnamyl acetate, cinnamyl acetate]",MIC 50,Enterobacteriaceae,> 10000 µg/mL
same,MIC 90,Enterobacteriaceae,> 10000 µg/mL
same,MIC Range,Enterobacteriaceae,> 10000 µg/mL
same,MIC 50,Other Gram - rods,> 10000 µg/mL
same,MIC 90,Other Gram - rods,> 10000 µg/mL
same,MIC 50,[2],> 10000 µg/mL
same,MIC 90,[2],> 10000 µg/mL
same,activity / spectrum in words,all the strains,intermediate
"C=CC(C)(O)CCC=C(C)C (centres unmarked) [Linalool, linalool]",MIC 50,Enterobacteriaceae,2500 µg/mL
same,MIC 90,Enterobacteriaceae,10000 µg/mL
same,MIC 50,Other Gram - rods,> 10000 µg/mL
same,MIC 90,Other Gram - rods,> 10000 µg/mL
same,MIC 50,[2],2500 µg/mL
same,MIC 90,[2],10000 µg/mL
same,activity / spectrum in words,all the strains,wide
"COc1ccccc1/C=C/C=O [Trans-methoxycinnamaldehyde, trans-2-methoxycinnamaldehyde]",MIC Range,Enterobacteriaceae,> 10000 µg/mL
same,MIC Range,Other Gram - rods,> 10000 µg/mL
same,MIC Range,[2],> 10000 µg/mL
CN[C@H](CC(C)C)C(=O)N[C@H]1C(=O)N[C@@H](CC(N)=O)C(=O)N[C@H]2C(=O)N[C@H]3C(=O)N[C@H](C(=O)N[C@H](C(=O)O)c4cc(O)cc(O)c4-c4cc3ccc4O)[C@H](O)c3ccc(c(Cl)c3)Oc3cc2cc(c3O[C@@H]2O[C@H](CO)[C@@H](O)[C@H](O)[C@H]2O[C@H]2C[C@](C)(N)[C@H](O)[C@H](C)O2)Oc2ccc(cc2Cl)[C@H]1O [Vancomicin],% survival,[4],100%
same,Final score,[4],10
same,"Final score, % vs placebo",[4],42.86%
same,Total weight,[4],1110
same,"Total weight, % vs placebo",[4],0.63%
